Counter-ions that a name gives are not always drawn.

The term IC50 denotes the concentration that inhibits the measured activity by half.

Sequence of AKT1 (P31749 whole entry): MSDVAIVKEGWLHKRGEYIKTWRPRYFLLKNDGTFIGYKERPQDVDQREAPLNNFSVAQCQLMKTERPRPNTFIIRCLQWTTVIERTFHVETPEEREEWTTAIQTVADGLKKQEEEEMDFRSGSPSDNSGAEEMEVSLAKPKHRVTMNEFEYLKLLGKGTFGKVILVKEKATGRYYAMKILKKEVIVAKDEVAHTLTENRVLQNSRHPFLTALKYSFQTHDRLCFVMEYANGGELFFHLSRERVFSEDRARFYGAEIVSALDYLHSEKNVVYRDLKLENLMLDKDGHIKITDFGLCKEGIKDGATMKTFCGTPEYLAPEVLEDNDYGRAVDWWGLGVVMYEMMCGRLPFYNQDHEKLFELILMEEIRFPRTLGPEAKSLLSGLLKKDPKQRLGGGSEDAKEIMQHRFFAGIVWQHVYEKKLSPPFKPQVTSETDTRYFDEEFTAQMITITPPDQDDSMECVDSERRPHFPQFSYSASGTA

This assay has as its target AKT1 (Homo sapiens (Human), UniProt P31749). Description: Inactive Akt Alpha Screen Assay. Conditions: non *labeled: Akt Alpha Screen assay; read-out: AKT1 biochemical assay, IC50. On the procedure:
AKT1 activity was assayed using the GSK3-derived biotinylated peptide substrate, crosstide (biotin-[…]), and AlphaScreen™ (Amplified Luminescent Proximity Homogeneous Assay) technology. AKT1 activation was achieved by the addition of the activating kinases PDK1 and MAPKAPK2, lipid vesicles, and ATP. The extent of peptide phosphorylation was determined using a phospho-AKT substrate antibody and acceptor beads conjugated to Protein A and donor beads conjugated to streptavidin that bind to the biotin on the peptide. Excitation of the donor beads converted ambient oxygen to excited singlet oxygen which, when in close proximity to acceptor beads, reacted with acceptor beads resulting in signal amplification. […] The plates were incubated for 30 minutes at room temperature, and then stopped in the dark by the addition of 10 μL stop/detection mixture prepared in assay buffer containing EDTA, AlphaScreen™ Streptavidin Donor and Protein A Acceptor beads, and phospho-AKT substrate antibody for final concentrations of 10 mM EDTA, 500 ng/well of both AlphaScreen™ Streptavidin Donor beads and Protein A Acceptor beads, and phospho-AKT substrate antibody at a final dilution of 1:350. Assay plates were incubated for 90 minutes at room temperature in the dark, and the plates were read on a Perkin Elmer Envision Multilabel plate reader (excitation wavelength: […], emission wavelength: 570 nm). […] Envision Instrument Settings: • Instrument: Perkin Elmer Envision • Plate: 96 well • Program Name: • Excitation: Ex Top • Mirror: General Dual—Slot 2 • Excitation Filter: CFP430 Ex.
Take `CCN(Cc1ccncc1)Cc1ccc(-c2nnc3n2-c2cccnc2Nc2ccccc2-3)cc1` [Example 70, N-(4-(9H-benzo[f]pyrido[2,3-b][1,2,4]triazolo[4,3-d][1,4]diazepin-3-yl)benzyl)-N-(pyridin-4-ylmethyl)ethanamine]: the half-maximal inhibitory concentration (IC50) came out at 2100 nM.

Take `c1ccc(-c2nnc3n2-c2cccnc2Nc2ccccc2-3)cc1` [Example 1, 3-phenyl-9H-benzo[f]pyrido[2,3-b][1,2,4]triazolo[4,3-d][1,4]diazepine]: the IC50 was 2800 nM.

As for `CN(CCc1ccccc1)Cc1ccc(-c2nnc3n2-c2cccnc2Nc2ccccc2-3)cc1` [Example 79, N-(4-(9H-benzo[f]pyrido[2,3-b][1,2,4]triazolo[4,3-d][1,4]diazepin-3-yl)benzyl)-N-methyl-2-phenylethanamine], the IC50 is 780 nM.

With `O=S(=O)(Cc1ccccc1)NC1CCN(Cc2ccc(-c3nnc4n3-c3cccnc3Nc3ccccc3-4)cc2)CC1` [Example 152, N-(1-(4-(9H-benzo[f]pyrido[2,3-b][1,2,4]triazolo[4,3-d][1,4]diazepin-3-yl)benzyl)piperidin-4-yl)-1-phenylmethanesulfonamide], the IC50 amounted to 1800 nM.

For `COc1ccccc1C(=O)N1CCN(Cc2ccc(-c3nnc4n3-c3cccnc3Nc3ccccc3-4)cc2)CC1` [Example 134, (4-(4-(9H-benzo[f]pyrido[2,3-b][1,2,4]triazolo[4,3-d][1,4]diazepin-3-yl)benzyl)piperazin-1-yl)(2-methoxyphenyl)methanone], the IC50 was found to be 430 nM.

With `c1ccc(-c2nnc(C3CCN(Cc4ccc(-c5nnc6n5-c5ccccc5Nc5ccccc5-6)cc4)CC3)[nH]2)nc1` [Example 129, 3-(4-((4-(5-(pyridin-2-yl)-4H-1,2,4-triazol-3-yl)piperidin-1-yl)methyl)phenyl)-9H-dibenzo[b,f][1,2,4]triazolo[4,3-d][1,4]diazepine], the IC50 was 250 nM.

In the case of `O=C(CCc1ccccc1)Nc1ccc(-c2nnc3n2-c2cccnc2Nc2ccccc2-3)cc1` [Example 54, N-(4-(9H-benzo[f]pyrido[2,3-b][1,2,4]triazolo[4,3-d][1,4]diazepin-3-yl)phenyl)-3-phenylpropanamide], the concentration for half-maximal inhibition (IC50) turned out to be 1800 nM.

With `O=S(=O)(NCc1ccc(-c2nnc3n2-c2cccnc2Nc2ccccc2-3)cc1)c1cccnc1` [Example 105, N-(4-(9H-benzo[f]pyrido[2,3-b][1,2,4]triazolo[4,3-d][1,4]diazepin-3-yl)benzyl)pyridine-3-sulfonamide], the IC50 worked out at 220 nM.

In the case of `Nc1cccc(-c2nnc3n2-c2cccnc2Nc2ccccc2-3)c1` [Example 18, hydrochloride], the half-inhibitory concentration (IC50) is 8100 nM.

For the compound `CCCc1ccccc1NC(=O)NC1CCN(Cc2ccc(-c3nnc4n3-c3cccnc3Nc3ccccc3-4)cc2)CC1` [Example 177, 1-(1-(4-(9H-benzo[f]pyrido[2,3-b][1,2,4]triazolo[4,3-d][1,4]diazepin-3-yl)benzyl)piperidin-4-yl)-3-(2-propylphenyl)urea], the IC50 was found to be 770 nM.

`NCc1ccc(-c2nnc3n2-c2cccnc2Nc2ccccc2-3)cc1` [Example 62, (4-(9H-benzo[f]pyrido[2,3-b][1,2,4]triazolo[4,3-d][1,4]diazepin-3-yl)phenyl)methanamine]: the IC50 turned out to be 690 nM.

For the compound `O=S(=O)(NC1CCN(Cc2ccc(-c3nnc4n3-c3cccnc3Nc3ccccc3-4)cc2)CC1)c1cccc(F)c1` [Example 157, N-(1-(4-(9H-benzo[f]pyrido[2,3-b][1,2,4]triazolo[4,3-d][1,4]diazepin-3-yl)benzyl)piperidin-4-yl)-3-fluorobenzenesulfonamide], the IC50 came to 2700 nM.

Take `CS(=O)(=O)OCc1ccc(-c2nnc3n2-c2cccnc2Nc2ccccc2-3)cc1` [Example 64, 4-(9H-benzo[f]pyrido[2,3-b][1,2,4]triazolo[4,3-d][1,4]diazepin-3-yl)benzyl methanesulfonate]: the IC50 was 490 nM.

As for `CN(C)C(=O)CN1CCN(Cc2ccc(-c3nnc4n3-c3cccnc3Nc3ccccc3-4)cc2)CC1` [Example 72, 2-(4-(4-(9H-benzo[f]pyrido[2,3-b][1,2,4]triazolo[4,3-d][1,4]diazepin-3-yl)benzyl)piperazin-1-yl)-N,N-dimethylacetamide], the IC50 was found to be 8000 nM.

`FC(F)(F)c1ccc(-c2nnc3n2-c2cccnc2Nc2ccccc2-3)cc1` [Example 8, 3-(4-(trifluoromethyl)phenyl)-9H-benzo[f]pyrido[2,3-b][1,2,4]triazolo[4,3-d][1,4]diazepine]: the IC50 was 30000 nM.

With `CN1CCC(N(C)Cc2ccc(-c3nnc4n3-c3cccnc3Nc3ccccc3-4)cc2)CC1` [Example 88, N-(4-(9H-benzo[f]pyrido[2,3-b][1,2,4]triazolo[4,3-d][1,4]diazepin-3-yl)benzyl)-N,1-dimethylpiperidin-4-amine], the half-maximal inhibitory concentration (IC50) came out at 5500 nM.

Regarding `Nc1ccc(-c2nnc3n2-c2ccccc2Nc2ccccc2-3)cc1` [Example 22, 4-(9H-dibenzo[b,f][1,2,4]triazolo[4,3-d][1,4]diazepin-3-yl)aniline], the half-inhibitory concentration (IC50) came to 1800 nM.

As for `NC1(c2ccc(-c3nnc4n3-c3cc(-c5ccccc5)cnc3Nc3ccccc3-4)cc2)CCC1` [Example 230, 1-(4-(6-phenyl-9H-benzo[f]pyrido[2,3-b][1,2,4]triazolo[4,3-d][1,4]diazepin-3-yl)phenyl)cyclobutanamine], the 50% inhibitory concentration (IC50) came to 2600 nM.

For `CC(C)CNCc1ccc(-c2nnc3n2-c2cccnc2Nc2ccccc2-3)cc1` [Example 71, N-(4-(9H-benzo[f]pyrido[2,3-b][1,2,4]triazolo[4,3-d][1,4]diazepin-3-yl)benzyl)-2-methylpropan-1-amine], the IC50 turned out to be 6400 nM.

`O=C(Nc1cccc(Cl)c1)NC1CCN(Cc2ccc(-c3nnc4n3-c3cccnc3Nc3ccccc3-4)cc2)CC1` [Example 176, 1-(1-(4-(9H-benzo[f]pyrido[2,3-b][1,2,4]triazolo[4,3-d][1,4]diazepin-3-yl)benzyl)piperidin-4-yl)-3-(3-chlorophenyl)urea]: the half-inhibitory concentration (IC50) turned out to be 1200 nM.

Consider `c1ccc(CCN2CCN(Cc3ccc(-c4nnc5n4-c4cccnc4Nc4ccccc4-5)cc3)CC2)cc1` [Example 94, 3-(4-((4-phenethylpiperazin-1-yl)methyl)phenyl)-9H-benzo[f]pyrido[2,3-b][1,2,4]triazolo[4,3-d][1,4]diazepine], for which the IC50 came out at 5800 nM.

For `CCCC(=O)Nc1ccc(-c2nnc3n2-c2cccnc2Nc2ccccc2-3)cc1` [Example 32, N-(4-(9H-benzo[f]pyrido[2,3-b][1,2,4]triazolo[4,3-d][1,4]diazepin-3-yl)phenyl)butyramide], the half-maximal inhibitory concentration (IC50) worked out at 730 nM.

On to `O=S(=O)(NCc1ccc(-c2nnc3n2-c2cccnc2Nc2ccccc2-3)cc1)c1cccc(F)c1` [Example 113, N-(4-(9H-benzo[f]pyrido[2,3-b][1,2,4]triazolo[4,3-d][1,4]diazepin-3-yl)benzyl)-3-fluorobenzenesulfonamide], for which the 50% inhibitory concentration (IC50) came out at 400 nM.

In the case of `O=C(NCc1ccc(-c2nnc3n2-c2cccnc2Nc2ccccc2-3)cc1)c1ccc(F)cc1` [Example 95, N-(4-(9H-benzo[f]pyrido[2,3-b][1,2,4]triazolo[4,3-d][1,4]diazepin-3-yl)benzyl)-4-fluorobenzamide], the IC50 came to 300 nM.

As to `COc1ccc(C(=O)N2CCN(Cc3ccc(-c4nnc5n4-c4cccnc4Nc4ccccc4-5)cc3)CC2)cc1` [Example 137, (4-(4-(9H-benzo[f]pyrido[2,3-b][1,2,4]triazolo[4,3-d][1,4]diazepin-3-yl)benzyl)piperazin-1-yl)(4-methoxyphenyl)methanone], the 50% inhibitory concentration (IC50) stood at 1400 nM.

`O=S(=O)(NCc1ccc(-c2nnc3n2-c2cccnc2Nc2ccccc2-3)cc1)c1ccccc1F` [Example 112, N-(4-(9H-benzo[f]pyrido[2,3-b][1,2,4]triazolo[4,3-d][1,4]diazepin-3-yl)benzyl)-2-fluorobenzenesulfonamide]: the concentration for half-maximal inhibition (IC50) stood at 170 nM.

For the compound `NC1(c2ccc(-c3nnc4n3-c3cnccc3Nc3ccccc3-4)cc2)CCC1` [Example 220, 1-(4-(9H-benzo[f]pyrido[4,3-b][1,2,4]triazolo[4,3-d][1,4]diazepin-3-yl)phenyl)cyclobutanamine], the IC50 turned out to be 5000 nM.

Regarding `Fc1cccc(F)c1-c1nnc2n1-c1cccnc1Nc1ccccc1-2` [Example 16], the IC50 was found to be 28000 nM.

As to `COCCNCc1ccc(-c2nnc3n2-c2cccnc2Nc2ccccc2-3)cc1` [Example 73, N-(4-(9H-benzo[f]pyrido[2,3-b][1,2,4]triazolo[4,3-d][1,4]diazepin-3-yl)benzyl)-2-methoxyethanamine], the IC50 amounted to 4600 nM.

Consider `O=S(=O)(NCCc1ccc(-c2nnc3n2-c2cccnc2Nc2ccccc2-3)cc1)c1ccccc1` [Example 108, N-(4-(9H-benzo[f]pyrido[2,3-b][1,2,4]triazolo[4,3-d][1,4]diazepin-3-yl)phenethyl)benzenesulfonamide], for which the 50% inhibitory concentration (IC50) was 5800 nM.

Consider `O=C(Nc1ccccc1)NC1(c2ccc(-c3nnc4n3-c3cccnc3Nc3ccccc3-4)cc2)CCC1` [Example 194, 1-(1-(4-(9H-benzo[f]pyrido[2,3-b][1,2,4]triazolo[4,3-d][1,4]diazepin-3-yl)phenyl)cyclobutyl)-3-phenylurea], for which the IC50 is 1200 nM.

Take `Oc1ccc(-c2nnc3n2-c2cccnc2Nc2ccccc2-3)cc1` [Example 19, 4-(9H-benzo[f]pyrido[2,3-b][1,2,4]triazolo[4,3-d][1,4]diazepin-3-yl)phenol]: the concentration for half-maximal inhibition (IC50) worked out at 2200 nM.

The values are drawn from patent US8541407B2 (ArQule, Inc., priority 2010, dated 2013).
